From the OPERA property sets (Mansouri et al. 2018)

Conditions: not given

Row | Compound | boiling point | log10 vapour pressure (mmHg) | melting point | ready biodegradability | log10 Koc (L/kg) | log10 Henry constant (atm·m³/mol) | log10 biodegradation half-life (days)
1 | CCC(C)N (configuration not stated) | 62.8 °C | 2.25 | -104 °C | readily biodegradable | – | – | –
2 | NC(=O)C(F)(F)F | 162 °C | – | 72.5 °C | – | – | – | –
3 | Cc1cc(N)ccc1Br | 240 °C | – | 81 °C | – | 2.26 | – | –
4 | Clc1ccc(Cl)c(-c2c(Cl)ccc(Cl)c2Cl)c1Cl | – | – | – | – | 6.01 | -4.06 | –
5 | O=C(O)CBr | 208 °C | -0.926 | 50 °C | – | – | -8.19 | –
6 | CCCC(=O)c1c(C)cc(C)c(C2CC(=O)C(C(CC)=NOCC)=C(O)C2)c1C (configuration not stated) | – | -8.12 | 80.8 °C | – | – | – | –
7 | CC(C)C1=CC(=O)C(C)CC1 (configuration not stated) | 236 °C | – | – | – | – | – | –
8 | NS(=O)(=O)c1ccc(SCCCCO)s1 | – | – | 48.5 °C | – | – | – | –
9 | CC=C(C)Cl | 64.5 °C | – | -19 °C | – | – | – | –
10 | CCCCCCCC/C=C\CCCCCCCCN | – | – | 246 °C | – | – | – | –
11 | O=CF | -26.5 °C | 3.46 | -142 °C | – | – | – | –
12 | Nc1ccc([N+](=O)[O-])cc1C(=O)c1ccccc1 | – | – | 163 °C | – | – | – | –
13 | CC(C)(C)c1cc(C(C)(C)C)cc(C(C)(C)C)c1 | – | – | – | not readily biodegradable | – | – | –
14 | CC1=CC(=O)C(C(C)C)=CC1=O | 232 °C | – | 45.5 °C | – | – | – | –
15 | CCC1(CC)C(=O)NC(=O)N(C)C1=O | – | – | 150 °C | – | – | – | –
16 | CC(CC(C)(C)C)CC(C)(C)CC(C)(C)C (configuration not stated) | – | – | – | not readily biodegradable | – | – | –
17 | O=[N+]([O-])c1cc(Cl)cc(Cl)c1 | – | – | 65.4 °C | – | – | – | –
18 | Clc1ccc(Oc2ccc(Cl)cc2)cc1 | 313 °C | -3.3 | 30 °C | – | – | – | –
19 | Cc1ncc([N+](=O)[O-])n1CC(O)CCl (configuration not stated) | – | – | 77.5 °C | – | – | – | –
20 | CCCCCCCCC#N | 224 °C | – | -34.2 °C | readily biodegradable | – | – | –
21 | O=C1OC2(c3ccccc31)c1ccc(O)c(Br)c1Oc1c2ccc(O)c1Br | – | – | 285 °C | – | – | – | –
22 | OCC=Cc1ccccc1 | – | -1.62 | 33 °C | readily biodegradable | – | – | –
23 | c1ccc(N(c2ccccc2)c2ccccc2)cc1 | 365 °C | – | 127 °C | – | 2.26 | – | –
24 | CC(=O)OCC(=O)[C@H]1CC[C@H]2[C@@H]3CCC4=CC(=O)CC[C@]4(C)[C@H]3CC[C@]12C | – | – | 157 °C | – | – | – | –
25 | O=C1c2ccccc2C(=O)C1c1nc2ccccc2c(Br)c1O | – | – | – | not readily biodegradable | – | – | –
26 | C=C(C)C(=O)OCC(CC)CCCC (configuration not stated) | – | – | – | readily biodegradable | – | – | –
27 | CCCCP(=O)(CCCC)CCCC | – | – | 64 °C | – | – | – | –

Row | Compound | boiling point | log10 vapour pressure (mmHg) | melting point | ready biodegradability | log10 Koc (L/kg) | log10 Henry constant (atm·m³/mol) | log10 biodegradation half-life (days)
28 | Cc1cc2ccccc2cc1C | 268 °C | -2.96 | 105 °C | readily biodegradable | – | -3.04 | 1.18
29 | CCC(=O)C=C(C)CC | 166 °C | – | – | – | – | – | –
30 | C=Cc1ccc(C=C)cc1 | – | – | 31 °C | not readily biodegradable | – | – | –
31 | CCOC(=O)Cn1c(=O)sc2cccc(Cl)c21 | – | -5.56 | 79.2 °C | – | – | – | –
32 | CCCCCCO[N+](=O)[O-] | 171 °C | 0.199 | – | – | – | -2.83 | –
33 | COc1cc(O)cc(O)c1 | – | – | 80.3 °C | – | – | – | –
34 | C[C@H]1CC[C@]2(NC1)O[C@H]1C[C@H]3[C@@H]4CC[C@H]5C[C@@H](O)CC[C@]5(C)[C@H]4CC[C@]3(C)[C@H]1[C@@H]2C | – | – | 210 °C | – | – | – | –
35 | CC(C)CC[N+](=O)[O-] | 164 °C | – | 97 °C | – | – | – | –
36 | CP(C)(=O)O | – | – | 92 °C | – | – | – | –
37 | CCOC(=O)CC(C)C(=O)OCC (configuration not stated) | 218 °C | – | – | – | – | – | –
38 | CCOC(=O)C(SP(=S)(OC)OC)c1ccccc1 (configuration not stated) | – | -5.58 | 17.5 °C | not readily biodegradable | 3 | – | –
39 | ClCCC[Si](Cl)(Cl)Cl | 182 °C | – | – | – | – | – | –
40 | CCCCC(C)S (configuration not stated) | 142 °C | – | -147 °C | – | – | – | –
41 | CCO[Si](C)(C)OCC | 114 °C | 1.3 | -87 °C | – | – | – | –
42 | O=C(O)Cc1cccc(Cl)c1 | – | – | 78.8 °C | – | – | – | –
43 | O=C[C@@H](O)C(O)CO (stereo in doubt) | – | – | 129 °C | – | – | – | –
44 | Cc1ccc(/N=C/N(C)/C=N/c2ccc(C)cc2C)c(C)c1 | – | -5.7 | 86 °C | – | 3 | -5.01 | –
45 | CC(=NO)C(C)=NO | – | – | 246 °C | – | – | – | –
46 | Cc1ccc(S(=O)(=O)F)cc1 | – | – | 41.5 °C | – | – | – | –
47 | CC(C)CC(=O)OCC(COC(=O)CC(C)C)OC(=O)CC(C)C | 332 °C | – | – | – | – | – | –
48 | CCCCCC=CCC=CCCCCCCCC(=O)O | – | – | – | readily biodegradable | – | – | –
49 | Clc1ccccc1C1CO1 (configuration not stated) | – | – | – | not readily biodegradable | – | – | –
50 | N#CCC(=O)c1ccccc1 | – | – | 80.5 °C | – | – | – | –
51 | CCN(CC)C(=S)SSC(=S)N(CC)CC | – | – | 71.5 °C | – | – | – | –
52 | C/C(=N\O)C(=O)c1ccccc1 | – | – | 114 °C | – | – | – | –
53 | COC(=O)Nc1ccc(Cl)c(Cl)c1 | – | – | – | – | 2.74 | – | –
54 | O=C1CCCCCCCCCCCCCCO1 | – | – | 32 °C | – | – | – | –

Same assay, conditions: fish

Row | Compound | log10 BCF | log10 biotransformation half-life (days)
55 | Clc1cc2oc3c(Cl)c(Cl)cc(Cl)c3c2c(Cl)c1Cl | 3.2 | –
56 | Cc1ccc([N+](=O)[O-])cc1 | 0.9 | -1.01
57 | Cc1cc(O)ccc1[N+](=O)[O-] | 1.06 | –
58 | CCc1cccc(CC)c1 | 2.73 | 0.09
59 | Nc1c(Oc2ccc(Br)cc2)cc(O)c2c1C(=O)c1ccccc1C2=O | 2.05 | –
60 | Clc1ccc(Cl)c(-c2c(Cl)ccc(Cl)c2Cl)c1Cl | – | 2.34
61 | CC(C)(C)c1cc(C(C)(C)C)cc(C(C)(C)C)c1 | 4.36 | 2.7
62 | CC(CC(C)(C)C)CC(C)(C)CC(C)(C)C (configuration not stated) | 3.82 | 1.81
63 | O=[N+]([O-])c1cc(Cl)cc(Cl)c1 | 2.23 | 0.57
64 | O=C1c2ccccc2C(=O)C1c1nc2ccccc2c(Br)c1O | 1.14 | –
65 | Cc1cc2ccccc2cc1C | – | 0.03
66 | C=Cc1ccc(C=C)cc1 | 2.48 | 0.5
67 | C=CCCC(CC)CCCC (configuration not stated) | – | 0.93
68 | CCOC(=O)C(SP(=S)(OC)OC)c1ccccc1 (configuration not stated) | 1.69 | -0.75
